The subject of assay [1] is Nakaseomyces glabratus. Briefly: Antifungal activity against Candida glabrata 8535 assessed as inhibition of fungal growth incubated for 48 to 72 hrs by microplate reader analysis. The settings on record: time 48-72 hrs. The assay is classed as functional.
Assay [2] concerns Cryptococcus neoformans. Briefly: Antifungal activity against Cryptococcus neoformans H99 assessed as inhibition of fungal growth incubated for 48 to 72 hrs by microplate reader analysis. The assay is classed as functional. As to conditions: time 48-72 hrs.
The test system of assay [3] is Cryptococcus gattii. Briefly: Antifungal activity against Cryptococcus gattii 01063P assessed as inhibition of fungal growth incubated for 48 to 72 hrs by microplate reader analysis. It is filed as functional. The settings on record: time 48-72 hrs.
Assay [4] has as its system Cryptococcus neoformans. Briefly: Antifungal activity against Cryptococcus neoformans 011409 assessed as inhibition of fungal growth incubated for 48 to 72 hrs by microplate reader analysis. The assay is classed as functional. As to conditions: time 48-72 hrs.
In assay [5] the test system is Candida albicans. Briefly: Antifungal activity against Candida albicans 103 assessed as inhibition of fungal growth incubated for 48 to 72 hrs by microplate reader analysis. It is filed as functional, organism-based. As to conditions: time 48-72 hrs.
The subject of assay [6] is Nakaseomyces glabratus. The assay is described as follows: Antifungal activity against Candida glabrata 0161 assessed as inhibition of fungal growth incubated for 48 to 72 hrs by microplate reader analysis. The assay is classed as functional. The settings on record: time 48-72 hrs.
The subject of assay [7] is Candida albicans. The assay is described as follows: Antifungal activity against Candida albicans SC5314 assessed as inhibition of fungal growth incubated for 48 to 72 hrs by microplate reader analysis. The settings on record: time 48-72 hrs. The assay is classed as functional, organism-based.
The subject of assay [8] is [Candida] auris. The assay is described as follows: Antifungal activity against Candida auris 0030 assessed as inhibition of fungal growth incubated for 48 to 72 hrs by microplate reader analysis. The settings on record: Candidozyma auris, time 48-72 hrs. The assay is classed as functional, organism-based.
The test system of assay [9] is [Candida] auris. Briefly: Antifungal activity against Candida auris 0029 assessed as inhibition of fungal growth incubated for 48 to 72 hrs by microplate reader analysis. The assay is classed as functional, organism-based. The settings on record: Candidozyma auris, time 48-72 hrs.
For assay [10], the system named is Candida albicans. The assay is described as follows: Antifungal activity against Candida albicans 9296 assessed as inhibition of fungal growth incubated for 48 to 72 hrs by microplate reader analysis. The assay is classed as functional, organism-based. As to conditions: time 48-72 hrs.
For assay [11], the system named is Nakaseomyces glabratus. The assay is described as follows: Antifungal activity against Candida glabrata 9256 assessed as inhibition of fungal growth incubated for 48 to 72 hrs by microplate reader analysis. The assay is classed as functional. The settings on record: time 48-72 hrs.
The test system of assay [12] is Cryptococcus neoformans. Briefly: Antifungal activity against Cryptococcus neoformans HN-68 assessed as inhibition of fungal growth incubated for 48 to 72 hrs by microplate reader analysis. As to conditions: time 48-72 hrs. The assay is classed as functional.
Assay [13] deals with [Candida] auris. Briefly: Antifungal activity against Candida auris 15448 assessed as inhibition of fungal growth incubated for 48 to 72 hrs by microplate reader analysis. As to conditions: Candidozyma auris, time 48-72 hrs. It is filed as functional, organism-based.

Molecules are shown by their SMILES. The source made the active and inactive calls. The rule behind the calls is not given here.

`CCCCCCc1ccc(NC(=S)N2N=C(N)CCC2=O)cc1`: the result in [1], in assay [2], in assay [3], in assay [4], in assay [5] and in assay [6] was inactive. Further, the result in [7], in assay [8], in assay [9], in [10], in assay [11] and in assay [12] was inactive. The result in assay [13] was inactive.
Take `Nc1cc(=O)n(C(=S)Nc2ccc(OC3CCCCC3)cc2)[nH]1`: the outcome in [1], in assay [2], in assay [3], in [4], in [5] and in assay [6] was Active. Further, the outcome in assay [7], in assay [8], in assay [9], in assay [10], in assay [11] and in assay [12] was Active. In addition, the result in [13] was Active.
As to `Nc1cc(=O)n(C(=S)Nc2ccc(C(F)(F)F)cc2)[nH]1`, the outcome in assay [1], in [6] and in [11] was Active. Further, the Activity entry in assay [2], in assay [3], in [4], in assay [5], in assay [7] and in [8] was “Not active; Compound Demonstrated Reduced Activity Compared To Lead Compound 1” throughout. The Activity result in assay [9], in assay [10], in assay [12] and in assay [13] was “Not active; Compound Demonstrated Reduced Activity Compared To Lead Compound 1” throughout.
In the case of `CNC(=O)c1ccc(NC(=S)n2[nH]c(N)cc2=O)cc1`, the outcome in assay [1], in assay [6] and in assay [11] was Active. Also, the Activity entry in [2], in [3], in assay [4], in assay [5], in assay [7] and in [8] was “Not active; Compound Demonstrated Reduced Activity Compared To Lead Compound 1” in each case. Besides, the Activity entry in [9], in [10], in assay [12] and in [13] was “Not active; Compound Demonstrated Reduced Activity Compared To Lead Compound 1” each time.
With `CCc1ccc(NC(=O)n2[nH]c(N)cc2=O)cc1`, the outcome in assay [1], in assay [2], in [3], in assay [4], in [5] and in [6] was inactive. The result in assay [7], in assay [8], in assay [9], in [10], in assay [11] and in [12] was inactive. The outcome in assay [13] was inactive.
As for `CCCCCCc1ccc(NC(=S)n2[nH]c(N)cc2=O)cc1`, the result in [1], in assay [2], in [3], in assay [4], in assay [5] and in assay [6] was Active. Besides, the result in assay [7], in [8], in [9], in assay [10], in assay [11] and in assay [12] was Active. In [13], the outcome was Active.
Consider `CC(=O)c1ccc(NC(=O)n2[nH]c(N)cc2=O)cc1`, for which the outcome in assay [1], in assay [2], in assay [3], in [4], in [5] and in assay [6] was inactive. The result in [7], in assay [8], in assay [9], in assay [10], in assay [11] and in assay [12] was inactive. Besides, the outcome in [13] was inactive.
Regarding `Nc1cc(=O)n(C(=S)Nc2ccc3ncccc3c2)[nH]1`, the result in [1], in assay [2], in assay [3], in assay [4], in [6] and in [11] was Active. For the same compound, the result in assay [12] was Active. For the same compound, the Activity result in assay [5], in assay [7], in [8], in [9], in assay [10] and in assay [13] was “Not active; Decrease In Activity Observed” each time.
In the case of `CCCCc1ccc(NC(=S)n2[nH]c(N)cc2=O)cc1`, the outcome in [1], in assay [2], in assay [3], in [4], in assay [5] and in [6] was Active. Also, the result in assay [7], in [8], in [9], in assay [10], in assay [11] and in assay [12] was Active. Further, the result in assay [13] was Active.
With `CS(=O)(=O)c1ccc(NC(=S)n2[nH]c(N)cc2=O)cc1`, the outcome in assay [1], in assay [6] and in [11] was Active. The Activity entry in assay [2], in [3], in assay [4], in assay [5], in assay [7] and in [8] was “Not active; Compound Demonstrated Reduced Activity Compared To Lead Compound 1” in each case. The Activity result in [9], in [10], in [12] and in assay [13] was “Not active; Compound Demonstrated Reduced Activity Compared To Lead Compound 1” in each case.

The record behind these values is ChEMBL document CHEMBL6109146, “Discovery of New Pyrazolone Carbothioamide Derivatives as Potent Antifungal Agents for the Treatment of Candidiasis and Cryptococcosis” (J Med Chem, 2025).
